Reference: patent US5780642A, “Imidazole derivatives as therapeutic agents” (KNOLL Aktiengesellschaft, priority 1993, dated 1998)
Where a name gives a salt, the structure may show the parent alone. Read-outs that look alike come from different tables or passages of the source.

Key:
platelet aggregation = conditions: cited from earlier work
[1] = test system: Zymosan Stimulated Macrophages (arachidonic acid release); assay: Test A: Inhibition of Arachidonic Acid Release from Zymosan Stimulated Macrophages; type: cell-based, mouse (female MF1 mice); conditions: Mus musculus, Macrophage, read-out: Test A IC50
Outline: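 Peritoneal macrophages from female MF1 mice, labelled overnight with [3H]-arachidonic acid (1.6 μCi/ml), then exposed to compound 24 h unstimulated and re-dosed with zymosan stimulus for 5 h at 37 °C. Released radioactivity counted by scintillation; spontaneous release subtracted; IC50 from six concentrations (1–100 μM), quadruplicate wells.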

[2] = test system: Carrageenan-induced rat paw oedema; assay: Test B: Carrageenan-induced rat paw oedema test; type: in vivo; conditions: 100 mg/kg oral; active = 20% or greater inhibition of paw oedema in at least two out of three tests
Description: Test B was carried out in the following way: Carrageenan-induced rat paw oedema test Female rats, weight range 125-150 g were fasted overnight. One of the hind legs of each animal was marked with a line at the connection between the cuboid/navicular and calcaneus/talus bones. Groups of six rats were orally dosed at 10 ml/kg, in random order, with a given dose of the test compound given as a solution or suspension in 10% (w/v) aqueous acacia solution. One hour after dosing, 0.1 ml of 1% (w/v) sterile carrageenan λ in normal saline was injected deeply into the plantar surface of the marked hind foot of each rat. The volume of the foot (up to the marked line) was measured immediately after injection using duplicate water displacement readings. Three hours after injection the foot volume was measured again and the percentage increase in foot volume relative to the initial reading was calculated. The increase in foot volume (i.e. the degree of oedema) in drug treated animals when compared with that in the drug untreated control gave the degree of inhibition of paw oedema by the drug. Compounds were considered to be active in this test if they produced a 20% or greater inhibition of paw oedema in at least two out of three tests after oral dosing at 100 mg/kg. Statistical significance was assessed using the Student's t test for single dose studies and Dunnett's test for multiple dose studies. More advantageous compounds were active in both Tests A and B.

[3] = test system: lymphocyte proliferation (BALB/c responder and C57BL/6 stimulator spleen cells); assay: Test C: Mixed Lymphocyte Reaction; type: cell-based, mouse (BALB/c and C57BL/6); conditions: Mus musculus, final concentration, read-out: IC50 (50% inhibition of the immune response)
Description: A mixed lymphocyte reaction (MLR) occurs when lymphocytes from two genetically dissimilar individuals, or inbred strains of mice are cultured together. An MLR results in the activation and proliferation of lymphocytes, which is measured by the incorporation of radiolabelled thymidine into the cellular DNA synthesised during cell division. A `one-way` MLR is used to determine the immunosuppressive activity of test compounds in vitro. In this reaction one population of spleen cells serves as the stimulator cells and is treated with mitomycin C to prevent cell division. Spleen cells from a second allogeneic population (responder cells) are untreated and when mixed with the stimulator cells are able to undergo division which is measured. The degree of proliferation is measured in the presence and absence of test compound to assess the immunosuppressive activity of the compound. The techniques for carrying out lymphocyte proliferation assays including MLRs are well known, eg Bradley, pages 156-166, in Mishell and Shiigi, Eds. Selected Methods in Cellular Immunology (Freeman, San Francisco, 1980); and Battisto et al, methods in Enzymology 1987; 150: 83-91. Various slight modifications of these techniques are in use and that used herein is described in Gibb, Webber and Bowen, J Immunological Methods 1985; 81: 107-113. The immunomodulant activity of the preferred compounds was determined in a mixed lymphocyte reaction (Test C) in the following manner: Mixed Lymphocyte Reaction Cell suspensions obtained from the spleens of female BALB/c and C57BL/6 strain mice of between 6 and 9 weeks of age were used as sources of responder and stimulator cells respectively. The mice were killed using a rising concentration of CO2 and the spleens removed aseptically and teased using a scalpel and forceps to produce a single cell suspension in Hanks balanced salt solution (HBSS). The suspensions were filtered through cell strainers (Falcon), sedimented by centrifugation and resuspended in Tris-buffered ammonium chloride pH 7.2 (medium D) to lyse the erythrocytes. The cells were sedimented again and washed twice in HBSS before resuspending in complete RPMI 1640 tissue culture medium (medium E). The C57BL/6 cells were resuspended to 9 mls per spleen and a solution of mitomycin C at 400 μg/ml in medium E added to give a final concentration of 40 μg/ml. After incubation of the C57BL/6 cells at 37° C. for 30 minutes in an atmosphere of 5% CO2 and 95% air, the cells were sedimented and washed 3 times in medium E. Both cell suspensions were diluted in medium E to 5×10^6 cells/ml. 100 μl of each of the responder and stimulator cell suspensions were aliquoted into the wells of 96 well flat bottom microtitre plates containing 50 μl of test compound at an appropriate dilution (initially 50 μM diluted in medium E from a stock solution at 100 mM in dimethyl sulphoxide) giving a final test compound concentration of 10 μM (final dilution). […] After four days of culture at 37° C. in a humidified atmosphere of 5% CO2 and 95% air, 1 μCi of tritiated thymidine in 20 μl of medium E was added to each well and the plates incubated for a further 24 hours. […] The filters were transferred to vials to which 2 mls of Packard Emulsifier-Safe scintillation fluid was added and the radioactivity from the incorporated thymidine was counted in a Packard liquid scintillation counter. […] The data were analysed to determine the percentage inhibition of lymphocyte proliferation by the test compound. […]

[4] = test system: Carrageenan-induced pleurisy (migrating leukocytes); assay: Carrageenan-induced pleurisy in rats; type: in vivo; conditions: rat, p.o. at time of challenge and 24h and 48h thereafter; 10 mg/kg
Description: The most advantageous compounds of formula I were active in Tests A and B and also in the following test. Carrageenan-induced pleurisy in rats was carried out as described by Ackerman et al. J. Pharmacol. Exp. Therap. 1980, 215, 588-595. Migrating leukocytes were harvested by lavage of the thoracic cavity 72h after injection of 0.3 ml 1% λcarrageenan in sterile isotonic saline. Test compounds were administered p.o. at the time of challenge and 24h and 48 h thereafter.

[5] = Indian Journal of Pharmacology 1973, 5, 428 / Pfl. Krankh. 1975, 3, 149; cited from earlier work
[6] = cited from earlier work
[7] = inhibition of arachidonic acid release, zymosan stimulated mouse peritoneal macrophages, tested at 100, 50, 20, 10, 5 and 1 μM, ≤100 μM considered active

Row | IC50 [1, 7] [µM] | Structure (SMILES) | IC50 [3] [nM] | further results
1 |  | CC(CCn1ccnc1)NCc1ccccc1 (stereo not shown) [Compound A] |  | inhibitory effect on platelet aggregation in vitro (platelet aggregation): inhibitory effect on platelet aggregation in vitro
2 | 14 | Cc1nccn1CCCNCCOc1ccc(Cl)cc1 [Example 8, N-[2-(4-Chlorophenoxy)ethyl]-3-(2-methylimidazol-1-yl)propylamine] | 2400 | activity in Test B (inhibition of paw oedema) [2]: active
3 | 7 | Clc1ccc(OCCNCCCCCn2ccnc2)cc1 [Example 16, N-[2-(4-chlorophenoxy)ethyl]-5-(imidazol-1-yl)pentylamine dihydrochloride hemihydrate] | 2800 | activity in carrageenan-induced pleurisy at 10 mg/kg [4]: active
4 | 12 | CC(C)(COc1ccc(Cl)cc1)NCCCn1ccnc1.Cl.Cl [Example 17, N-[2-(4-chlorophenoxy)-1,1-dimethylethyl]-3-(imidazol-1-yl)propylamine dihydrochloride] | 5900 | activity in carrageenan-induced pleurisy at 10 mg/kg [4]: active
5 |  | CC(C)(CSc1ccc(Cl)cc1)NCCCn1ccnc1 [Example 19, N-[2-(4-Chlorophenylthio)-1,1-dimethylethyl]-3-(imidazol-1-yl)propylamine dihydrochloride] | 1700 | IC50 [1]: 8 µM
6 | 25 | CC(C)(NCCCc1ncc[nH]1)c1ccccc1 [Example 87, 3-(imidazol-2-yl)-N-(1-methyl-1-phenylethyl)propylamine] | 5800 | 
7 |  | CCC(NCC(C)N1CCOCC1)c1ccc(Cl)c(Cl)c1 (stereo not drawn) [N-[2-(4-Morpholino)propyl]-α-ethyl-3,4-dichlorobenzylamine] |  | antiinflammatory activity (alleged) [5]: alleged to have antiinflammatory activity; undesirable side-effects in mice [6]: wide range of undesirable side-effects in mice
